Results taken from patent publication US20210032651A1, “IMPROVEMENT OF HERBICIDE TOLERANCE TO HPPD INHIBITORS BY DOWN-REGULATION OF PUTATIVE 4-HYDROXYPHENYLPYRUVATE REDUCTASES IN SOYBEAN” (BASF SE, priority 2017, published 2021).

Test system: soybean T1 plants transformed with pMLS0519 or pCPE825
Test: Field trial of the T1 generation, herbicide tolerance
Assay type: in vivo
Conditions: Puerto Rico, pMLS0519 and pCPE825 the most effective of the constructs tested

## CS(=O)(=O)c1cc(C(F)(F)F)ccc1C(=O)c1cnoc1C1CC1 [isoxaflutole, (5-cyclopropyl-4-isoxazolyl)[2-(methylsulfonyl)-4-(trifluoromethyl)phenyl]methanone]
  tolerance in field trial: good tolerance
